# From ChEMBL document CHEMBL3045193, “Synthesis and Herbicidal Activity of 1H-2, 3-Benzoxazine Derivatives” (J Pestic Sci, 2002)
# Tested on: Gossypium hirsutum
# Test: Toxicity in Gossypium hirsutum (cotton) assessed as killing at 1 kg/ha by crop selectivity assay
# Type: organism-based
# Settings: in vivo
row,Structure (SMILES),Activity [%]
1,CCCCCCCC(=O)Oc1c(I)cc(C#N)cc1I [IOXYNIL OCTANOATE],0
2,Fc1ccc(C2=NOCc3ccccc32)cc1Cl,0
3,Fc1ccc2c(c1)C(c1ccc(F)c(Br)c1)=NOC2,0

# Tested on: Triticum aestivum
# Test: Toxicity in Triticum aestivum (wheat) plant assessed as killing at 2 kg/ha by crop selectivity assay
# Type: organism-based
# Settings: in vivo
row,Structure (SMILES),Activity [%]
1,CCCCCCCC(=O)Oc1c(I)cc(C#N)cc1I [IOXYNIL OCTANOATE],0
2,Fc1ccc(C2=NOCc3ccccc32)cc1Cl,20
3,Fc1ccc2c(c1)C(c1ccc(F)c(Br)c1)=NOC2,20

# Tested on: Amaranthus viridis
# Test: Herbicidal activity against Amaranthus viridis assessed as killing at 1 kg/ha
# Type: functional
# Settings: not given
row,Structure (SMILES),Activity [%]
1,CCCCCCCC(=O)Oc1c(I)cc(C#N)cc1I [IOXYNIL OCTANOATE],100
2,Fc1ccc(C2=NOCc3ccccc32)cc1Cl,80
3,Fc1ccc2c(c1)C(c1ccc(F)c(Br)c1)=NOC2,80

# Tested on: Echinochloa crus-galli
# Test: Herbicidal activity against Echinochloa crus-galli (barnyard grass) assessed as killing at 2 kg/ha
# Type: functional
# Settings: not given
row,Structure (SMILES),Activity [%]
1,Clc1ccccc1C1=NOCc2ccccc21,0
2,Clc1ccc(C2=NOCc3ccccc32)cc1Cl,80
3,Cc1cccc(C2=NOCc3ccccc32)c1,40
4,Oc1cccc(C2=NOCc3ccccc32)c1,0
5,Fc1ccc(C2=NOCc3cc(Cl)ccc32)cc1Cl,0
6,Clc1cc(Cl)cc(C2=NOCc3ccccc32)c1,0
7,c1ccc(C2=NOCc3ccccc32)cc1,0
8,Fc1ccc2c(c1)CON=C2c1ccc(F)c(Br)c1,20
9,CCCCCCCC(=O)Oc1c(I)cc(C#N)cc1I [IOXYNIL OCTANOATE],90
10,Clc1cccc(C2=NOCc3ccccc32)c1,90
11,Brc1cccc(C2=NOCc3ccccc32)c1,80
12,Clc1ccc(C2=NOCc3ccccc32)s1,20
13,Cc1cc(C2=NOCc3ccccc32)no1,0
14,Fc1ccc(C2=NOCc3ccccc32)cc1Cl,100
15,Cn1ccnc1C1=NOCc2ccccc21,0
16,N#Cc1cccc(C2=NOCc3ccccc32)c1,20
17,Fc1ccc(C2=NOCc3c(Cl)cccc32)cc1Cl,0
18,Cc1cc(C2=NOCc3ccccc32)on1,0

row,Structure (SMILES),Activity [%]
1,Clc1ccc(C2=NOCc3ccccc32)cc1,40
2,Clc1cc(C2=NOCc3ccccc32)ccn1,80
3,Fc1ccc2c(c1)C(c1ccc(F)c(Cl)c1)=NOC2,60
4,Fc1cc(C2=NOCc3ccccc32)ccc1Cl,60
5,Fc1ccc(C2=NOCc3c(F)cccc32)cc1Cl,60
6,Clc1ccc(Cl)c(C2=NOCc3ccccc32)c1,0
7,O=[N+]([O-])c1cccc(C2=NOCc3ccccc32)c1,40
8,Fc1ccc(C2=NOCc3ccccc32)cc1F,80
9,Fc1ccc(C2=NOCc3ccc(Cl)cc32)cc1Cl,90
10,Clc1cccc(C2=NOCc3ccccc32)c1Cl,0
11,Fc1ccc2c(c1)CON=C2c1ccc(F)c(Cl)c1,50
12,Fc1ccc(C2=NOCc3ccccc32)cc1Br,100
13,Fc1cccc(C2=NOCc3ccccc32)c1,20
14,Ic1cccc(C2=NOCc3ccccc32)c1,60
15,COc1cccc(C2=NOCc3ccccc32)c1,0
16,Fc1ccc(C2=NOCc3ccccc32)cc1C(F)(F)F,90
17,FC(F)(F)c1cccc(C2=NOCc3ccccc32)c1,70
18,Fc1ccc2c(c1)C(c1ccc(F)c(Br)c1)=NOC2,100

# Tested on: Gossypium hirsutum
# Test: Toxicity in Gossypium hirsutum (cotton) assessed as killing at 2 kg/ha by crop selectivity assay
# Type: organism-based
# Settings: in vivo
row,Structure (SMILES),Activity [%]
1,CCCCCCCC(=O)Oc1c(I)cc(C#N)cc1I [IOXYNIL OCTANOATE],0
2,Fc1ccc(C2=NOCc3ccccc32)cc1Cl,20
3,Fc1ccc2c(c1)C(c1ccc(F)c(Br)c1)=NOC2,0

# Tested on: Digitaria ciliaris
# Test: Herbicidal activity against Digitaria ciliaris assessed as killing at 1 kg/ha
# Type: functional
# Settings: not given
row,Structure (SMILES),Activity [%]
1,CCCCCCCC(=O)Oc1c(I)cc(C#N)cc1I [IOXYNIL OCTANOATE],80
2,Fc1ccc(C2=NOCc3ccccc32)cc1Cl,100
3,Fc1ccc2c(c1)C(c1ccc(F)c(Br)c1)=NOC2,100

# Tested on: Triticum aestivum
# Test: Toxicity in Triticum aestivum (wheat) plant assessed as killing at 1 kg/ha by crop selectivity assay
# Type: organism-based
# Settings: in vivo
row,Structure (SMILES),Activity [%]
1,CCCCCCCC(=O)Oc1c(I)cc(C#N)cc1I [IOXYNIL OCTANOATE],0

# Tested on: Digitaria ciliaris
# Test: Herbicidal activity against Digitaria ciliaris assessed as killing at 2 kg/ha
# Type: functional
# Settings: not given
row,Structure (SMILES),Activity [%]
1,Clc1ccccc1C1=NOCc2ccccc21,0
2,Clc1ccc(C2=NOCc3ccccc32)cc1Cl,100
3,Cc1cccc(C2=NOCc3ccccc32)c1,60
4,Oc1cccc(C2=NOCc3ccccc32)c1,0
5,Fc1ccc(C2=NOCc3cc(Cl)ccc32)cc1Cl,60
6,Clc1cc(Cl)cc(C2=NOCc3ccccc32)c1,0
7,c1ccc(C2=NOCc3ccccc32)cc1,20
8,Fc1ccc2c(c1)CON=C2c1ccc(F)c(Br)c1,100
9,CCCCCCCC(=O)Oc1c(I)cc(C#N)cc1I [IOXYNIL OCTANOATE],80
10,Clc1cccc(C2=NOCc3ccccc32)c1,100
11,Brc1cccc(C2=NOCc3ccccc32)c1,100
12,Clc1ccc(C2=NOCc3ccccc32)s1,40
13,Cc1cc(C2=NOCc3ccccc32)no1,0
14,Fc1ccc(C2=NOCc3ccccc32)cc1Cl,100
15,Cn1ccnc1C1=NOCc2ccccc21,0
16,N#Cc1cccc(C2=NOCc3ccccc32)c1,40
17,Fc1ccc(C2=NOCc3c(Cl)cccc32)cc1Cl,0
18,Cc1cc(C2=NOCc3ccccc32)on1,0

row,Structure (SMILES),Activity [%]
1,Clc1ccc(C2=NOCc3ccccc32)cc1,20
2,Clc1cc(C2=NOCc3ccccc32)ccn1,60
3,Fc1ccc2c(c1)C(c1ccc(F)c(Cl)c1)=NOC2,100
4,Fc1cc(C2=NOCc3ccccc32)ccc1Cl,90
5,Fc1ccc(C2=NOCc3c(F)cccc32)cc1Cl,100
6,Clc1ccc(Cl)c(C2=NOCc3ccccc32)c1,0
7,O=[N+]([O-])c1cccc(C2=NOCc3ccccc32)c1,60
8,Fc1ccc(C2=NOCc3ccccc32)cc1F,80
9,Fc1ccc(C2=NOCc3ccc(Cl)cc32)cc1Cl,100
10,Clc1cccc(C2=NOCc3ccccc32)c1Cl,0
11,Fc1ccc2c(c1)CON=C2c1ccc(F)c(Cl)c1,100
12,Fc1ccc(C2=NOCc3ccccc32)cc1Br,100
13,Fc1cccc(C2=NOCc3ccccc32)c1,60
14,Ic1cccc(C2=NOCc3ccccc32)c1,60
15,COc1cccc(C2=NOCc3ccccc32)c1,20
16,Fc1ccc(C2=NOCc3ccccc32)cc1C(F)(F)F,100
17,FC(F)(F)c1cccc(C2=NOCc3ccccc32)c1,90
18,Fc1ccc2c(c1)C(c1ccc(F)c(Br)c1)=NOC2,100

# Tested on: Persicaria lapathifolia
# Test: Herbicidal activity against Persicaria lapathifolia assessed as killing at 1 kg/ha
# Type: functional
# Settings: not given
row,Structure (SMILES),Activity [%]
1,CCCCCCCC(=O)Oc1c(I)cc(C#N)cc1I [IOXYNIL OCTANOATE],90
2,Fc1ccc(C2=NOCc3ccccc32)cc1Cl,100
3,Fc1ccc2c(c1)C(c1ccc(F)c(Br)c1)=NOC2,60

# Tested on: Glycine max
# Test: Toxicity in Glycine max (soybean) assessed as killing at 1 kg/ha by crop selectivity assay
# Type: organism-based
# Settings: in vivo
row,Structure (SMILES),Activity [%]
1,CCCCCCCC(=O)Oc1c(I)cc(C#N)cc1I [IOXYNIL OCTANOATE],0
2,Fc1ccc(C2=NOCc3ccccc32)cc1Cl,0
3,Fc1ccc2c(c1)C(c1ccc(F)c(Br)c1)=NOC2,0

# Tested on: Glycine max
# Test: Toxicity in Glycine max (soybean) assessed as killing at 2 kg/ha by crop selectivity assay
# Type: organism-based
# Settings: in vivo
row,Structure (SMILES),Activity [%]
1,CCCCCCCC(=O)Oc1c(I)cc(C#N)cc1I [IOXYNIL OCTANOATE],20
2,Fc1ccc(C2=NOCc3ccccc32)cc1Cl,0
3,Fc1ccc2c(c1)C(c1ccc(F)c(Br)c1)=NOC2,0

# Tested on: Echinochloa crus-galli
# Test: Herbicidal activity against Echinochloa crus-galli (barnyard grass) assessed as killing at 1 kg/ha
# Type: functional
# Settings: not given
row,Structure (SMILES),Activity [%]
1,CCCCCCCC(=O)Oc1c(I)cc(C#N)cc1I [IOXYNIL OCTANOATE],80
2,Fc1ccc(C2=NOCc3ccccc32)cc1Cl,100
3,Fc1ccc2c(c1)C(c1ccc(F)c(Br)c1)=NOC2,100

# Tested on: Amaranthus viridis
# Test: Herbicidal activity against Amaranthus viridis assessed as killing at 2 kg/ha
# Type: functional
# Settings: not given
row,Structure (SMILES),Activity [%]
1,Clc1ccccc1C1=NOCc2ccccc21,0
2,CCCCCCCC(=O)Oc1c(I)cc(C#N)cc1I [IOXYNIL OCTANOATE],100
3,Clc1cccc(C2=NOCc3ccccc32)c1,60
4,Clc1ccc(C2=NOCc3ccccc32)s1,20
5,Cc1cc(C2=NOCc3ccccc32)no1,0
6,Fc1ccc(C2=NOCc3ccccc32)cc1Cl,90
7,Cn1ccnc1C1=NOCc2ccccc21,0
8,Cc1cc(C2=NOCc3ccccc32)on1,0
9,Clc1ccc(C2=NOCc3ccccc32)cc1,20
10,Clc1cc(C2=NOCc3ccccc32)ccn1,60
11,Fc1ccc2c(c1)C(c1ccc(F)c(Br)c1)=NOC2,100

# Tested on: Persicaria lapathifolia
# Test: Herbicidal activity against Persicaria lapathifolia assessed as killing at 2 kg/ha
# Type: functional
# Settings: not given
row,Structure (SMILES),Activity [%]
1,Clc1ccccc1C1=NOCc2ccccc21,0
2,CCCCCCCC(=O)Oc1c(I)cc(C#N)cc1I [IOXYNIL OCTANOATE],90
3,Clc1cccc(C2=NOCc3ccccc32)c1,60
4,Clc1ccc(C2=NOCc3ccccc32)s1,20
5,Cc1cc(C2=NOCc3ccccc32)no1,0
6,Fc1ccc(C2=NOCc3ccccc32)cc1Cl,100
7,Cn1ccnc1C1=NOCc2ccccc21,0
8,Cc1cc(C2=NOCc3ccccc32)on1,0
9,Clc1ccc(C2=NOCc3ccccc32)cc1,0
10,Clc1cc(C2=NOCc3ccccc32)ccn1,60
11,Fc1ccc2c(c1)C(c1ccc(F)c(Br)c1)=NOC2,80
